Test results from the supplement of paper PMC10307832.

How the values were obtained:
Assay in all cases: relative viability (nuclei count vs DMSO), 5 days (fraction); higher = more cells survive
Linifanib + Navitoclax = compound: Cc1ccc(F)c(NC(=O)Nc2ccc(-c3cccc4[nH]nc(N)c34)cc2)c1 [Linifanib] + CC1(C)CCC(c2ccc(Cl)cc2)=C(CN2CCN(c3ccc(C(=O)NS(=O)(=O)c4ccc(N[C@H](CCN5CCOCC5)CSc5ccccc5)c(S(=O)(=O)C(F)(F)F)c4)cc3)CC2)C1 [Navitoclax] (partner 0.5 µM)
Summary of the method: (§1)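 Lung cancer cell lines, seeded in 1536-well plates, were treated the following day by pin tool with a single drug or with five library-drug doses (not always all listed) in √10 steps on top of a fixed anchor-drug dose. Cells were fixed and nuclei stained in one step after 5 days, and nuclei were counted. Relative viability is the nuclei count for treated wells divided by that for vehicle wells, reported as medians of duplicate plates.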

Linifanib + Pictilisib = compound: Cc1ccc(F)c(NC(=O)Nc2ccc(-c3cccc4[nH]nc(N)c34)cc2)c1 [Linifanib] + CS(=O)(=O)N1CCN(Cc2cc3nc(-c4cccc5[nH]ncc45)nc(N4CCOCC4)c3s2)CC1 [Pictilisib] (partner 1 µM)
Summary of the method: as §1

Linifanib + Alpelisib = compound: Cc1ccc(F)c(NC(=O)Nc2ccc(-c3cccc4[nH]nc(N)c34)cc2)c1 [Linifanib] + Cc1nc(NC(=O)N2CCC[C@H]2C(N)=O)sc1-c1ccnc(C(C)(C)C(F)(F)F)c1 [Alpelisib] (partner 2 µM)
Summary of the method: as §1

Linifanib + Linsitinib = compound: Cc1ccc(F)c(NC(=O)Nc2ccc(-c3cccc4[nH]nc(N)c34)cc2)c1 [Linifanib] + C[C@]1(O)C[C@@H](c2nc(-c3ccc4ccc(-c5ccccc5)nc4c3)c3c(N)nccn32)C1 [Linsitinib] (partner 1 µM)
Summary of the method: as §1

Linifanib + Vorinostat = compound: Cc1ccc(F)c(NC(=O)Nc2ccc(-c3cccc4[nH]nc(N)c34)cc2)c1 [Linifanib] + O=C(CCCCCCC(=O)Nc1ccccc1)NO [Vorinostat] (partner 1 µM)
Summary of the method: as §1

Linifanib = compound: Cc1ccc(F)c(NC(=O)Nc2ccc(-c3cccc4[nH]nc(N)c34)cc2)c1 [Linifanib]
Summary of the method: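 Following overnight incubation at 37 °C, lung cancer cell lines in 1536-well plates were pinned with five library-drug doses (not always all listed) in √10 steps on vehicle-anchored plates. The cells then spent 5 days without medium change before a combined fix, permeabilisation and Hoechst stain, 4× imaging and MetaXpress nuclear counts. Viability is the treated-to-vehicle ratio of nuclei, taken as the median across plates. Only plates with control CV below 25% and at least one doubling passed.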

Row | Cell Line | relative viability (Linifanib + Navitoclax; first compound 0.03162 µM) | relative viability (Linifanib + Navitoclax; first compound 0.1 µM) | relative viability (Linifanib + Navitoclax; first compound 0.3162 µM) | relative viability (Linifanib + Pictilisib; first compound 0.03162 µM) | relative viability (Linifanib + Pictilisib; first compound 0.1 µM) | relative viability (Linifanib + Pictilisib; first compound 0.3162 µM) | relative viability (Linifanib + Alpelisib; first compound 0.03162 µM) | relative viability (Linifanib + Alpelisib; first compound 0.1 µM) | relative viability (Linifanib + Alpelisib; first compound 0.3162 µM) | relative viability (Linifanib + Linsitinib; first compound 0.03162 µM) | relative viability (Linifanib + Linsitinib; first compound 0.1 µM) | relative viability (Linifanib + Linsitinib; first compound 0.3162 µM) | relative viability (Linifanib + Vorinostat; first compound 0.03162 µM) | relative viability (Linifanib + Vorinostat; first compound 0.1 µM) | relative viability (Linifanib + Vorinostat; first compound 0.3162 µM) | relative viability (Linifanib; 0.03162 µM) | relative viability (Linifanib; 0.1 µM) | relative viability (Linifanib; 0.3162 µM)
1 | LU99A | 0.747 | 0.775 | 0.743 | 0.317 | 0.349 | 0.325 | 0.574 | 0.618 | 0.539 | 0.503 | 0.551 | 0.505 | 0.497 | 0.43 | 0.505 | 1.02 | 1.03 | 0.853
2 | LXF-289 | 0.936 | 0.953 | 0.883 | 0.849 | 0.874 | 0.784 | 1.11 | 1.04 | 1.02 | 0.989 | 1.02 | 0.972 | 0.85 | 0.762 | 0.807 | 1.04 | 1.04 | 0.84
3 | NCI-H23 | 0.98 | 0.99 | 0.61 | 0.542 | 0.524 | 0.523 | 0.563 | 0.807 | 0.76 | 0.536 | 0.798 | 0.475 | 0.771 | 0.688 | 0.566 | 0.98 | 1.06 | 0.811
4 | NCI-H322M | 1.25 | 1.14 | 1.17 | 0.513 | 0.491 | 0.557 | 0.81 | 0.823 | 0.754 | 1 | 0.865 | 0.838 | 0.848 | 0.914 | 0.876 | 1 | 0.939 | 0.956
5 | NCI-H441 | 0.705 | 0.637 | 0.591 | 0.493 | 0.519 | 0.479 | 0.649 | 1.05 | 0.735 | 0.528 | 0.731 | 0.547 | 0.626 | 0.81 | 0.658 | 1.1 | 1.27 | 0.974
6 | NCI-H460 | 1.1 | 1.45 | 1 | 0.397 | 0.448 | 0.317 | 0.432 | 0.602 | 0.469 | 0.714 | 1.05 | 0.773 | 0.713 | 0.877 | 0.596 | 0.984 | 1.03 | 0.92
7 | NCI-H520 | 1.02 | 1.1 | 1.05 | 0.29 | 0.304 | 0.315 | 0.789 | 0.801 | 0.794 | 1.07 | 1 | 0.811 | 0.669 | 0.769 | 0.643 | 0.862 | 1.07 | 0.955
8 | NCI-H596 | 1.12 | 1.04 | 0.882 | 0.378 | 0.375 | 0.446 | 0.544 | 0.517 | 0.431 | 1.08 | 0.993 | 1.06 | 0.604 | 0.624 | 0.689 | 0.94 | 1.03 | 0.884
9 | NCI-H647 | 1.23 | 1.03 | 1.01 | 0.313 | 0.512 | 0.417 | 1.07 | 1.21 | 0.963 | 1.13 | 1.06 | 1.07 | 0.638 | 0.672 | 0.516 | 1.05 | 1.05 | 0.945
10 | NCI-H727 | 0.407 | 0.402 | 0.415 | 0.3 | 0.431 | 0.385 | 0.613 | 0.6 | 0.483 | 0.224 | 0.291 | 0.222 | 1.29 | 1.18 | 1.09 | 0.899 | 1.02 | 0.855
11 | NCI-H838 | 1.19 | 1.15 | 1.16 | 0.464 | 0.466 | 0.458 | 0.903 | 1.07 | 0.932 | 0.973 | 1.14 | 0.901 | 0.724 | 0.711 | 0.686 | 0.96 | 1.06 | 0.936
12 | NCI-H1355 | 0.891 | 0.953 | 0.963 | 0.463 | 0.401 | 0.433 | 0.81 | 0.823 | 0.794 | 0.843 | 0.876 | 0.852 | 0.647 | 0.68 | 0.682 | 1.03 | 1.07 | 0.99
13 | NCI-H1395 | 1.19 | 1.17 | 1.21 | 0.676 | 0.715 | 0.525 | 1.2 | 1.02 | 1.08 | 1.06 | 1.08 | 1.09 | 0.824 | 0.71 | 0.633 | 0.956 | 0.983 | 0.868
14 | NCI-H1437 | 1.1 | 1.12 | 1.07 | 0.529 | 0.495 | 0.471 | 1.02 | 0.999 | 0.868 | 1.03 | 1.14 | 0.814 | 0.851 | 0.918 | 0.819 | 1.07 | 1.01 | 0.978
15 | NCI-H1651 | 0.91 | 1.24 | 0.999 | 0.591 | 0.582 | 0.355 | 0.883 | 0.838 | 0.996 | 0.997 | 1.14 | 0.9 | 0.688 | 0.561 | 0.573 | 1.07 | 1.09 | 0.978
16 | NCI-H1666 | 0.982 | 0.948 | 1.17 | 0.492 | 0.419 | 0.402 | 0.951 | 1.15 | 1.1 | 0.66 | 0.869 | 0.803 | 0.996 | 1.01 | 0.97 | 0.986 | 1.03 | 0.939
